Measurements: PubChem BioAssay (NCI)
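1) Cells in 96-well plates. 2) Compound, 48 h, 5 concentrations. 3) Linear interpolation between surrounding doses. 4) Unreached endpoint = highest concentration. GI50 marks 50% less growth. The concentration for full growth arrest is given as TGI.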

Columns and labels:
Assay in all cases: NCI-60 cell line screen, 48 h
HOP-92 NSCLC = test system: HOP-92 NSCLC
SK-MEL-5 melanoma = test system: SK-MEL-5 melanoma
OVCAR-4 ovarian = test system: OVCAR-4 ovarian
SN12C renal = test system: SN12C renal
SR leukemia = test system: SR leukemia
NCI-H522 lung = test system: NCI-H522 lung
NCI-H23 lung = test system: NCI-H23 lung
SF-295 CNS = test system: SF-295 CNS
COLO 205 colon = test system: COLO 205 colon

SMILES	GI50 (HOP-92 NSCLC) [µM]	TGI (HOP-92 NSCLC) [µM]	GI50 (SK-MEL-5 melanoma) [µM]	TGI (SK-MEL-5 melanoma) [µM]	GI50 (OVCAR-4 ovarian) [µM]	TGI (OVCAR-4 ovarian) [µM]	GI50 (SN12C renal) [µM]	TGI (SN12C renal) [µM]	GI50 (SR leukemia) [µM]	TGI (SR leukemia) [µM]	GI50 (NCI-H522 lung) [µM]	TGI (NCI-H522 lung) [µM]	GI50 (NCI-H23 lung) [µM]	TGI (NCI-H23 lung) [µM]	GI50 (SF-295 CNS) [µM]	TGI (SF-295 CNS) [µM]	GI50 (COLO 205 colon) [µM]	TGI (COLO 205 colon) [µM]
CCN(CC)CCCC(C)Nc1c2ccc(Cl)cc2nc2ccc(O)cc12 (stereo not given)	2.05	12	1.73	3.12	1.88	4.66	2.59	16.6	2.07	7.11	1.28	3.71	3.18	13.6	1.73	3.76	1.17	2.63
O=C1Nc2ccccc2C1(c1ccc(O)cc1)c1ccc(O)cc1	2.42	21.2	14.7	29.3	0.103	0.961	0.312	50.6	32.9	> 96.3	17.2	43.4	1.23	37.8	16.2	49.4	0.125	4.38
Nc1nccc(-c2c(-c3ccc(F)cc3)ncn2C2CCC(O)CC2)n1 (stereo not given)	1.62	17.3	3.94	> 25	2.92	> 25	6.72	> 25	12.5	> 25	5.49	> 23.1	9.77	> 25	17.7	> 25	7.1	> 25
COc1cc2ncn(-c3cc(OCc4cccs4)c(C(N)=O)s3)c2cc1OC	4.38	> 22	1.94	> 25	7.97	> 25	2.8	> 25	1.48	> 25	0.924	> 12.5	1.24	> 25	1.59	> 25	1.11	> 13.9
O/N=C/c1ncccc1C1OCCO1	–	> 100	–	> 100	–	> 100	–	> 100	–	> 100	–	> 100	–	> 100	–	> 100	–	> 100
N#C/C(=C\c1ccc2ccccc2c1)c1ccccc1	–	> 100	–	66.5	–	69.1	–	> 100	–	> 100	–	29.6	–	> 100	–	50.4	–	35.9
O=C(O)/C=C(\c1nc2ccc([N+](=O)[O-])cc2[nH]1)c1cc(Cl)ccc1O	0.711	5.35	1.1	4.06	2.72	36.6	2.71	33.8	3.23	18.5	1.17	5.03	1.96	19.6	3.43	20.1	2.87	11.2
Cc1c(C(=O)C/C(=N/NC(=O)C[N+](C)(C)C)C(=O)Nc2ccc(Cl)cc2)[n+](=O)c2ccccc2n1O	–	> 100	–	> 100	–	> 100	–	> 100	–	> 100	–	> 100	–	> 100	–	> 100	–	> 100
O=C(CC1C(=O)NN(c2ccc(Br)cc2)C1=O)c1cc(O)ccc1O (stereo not given)	11.6	> 50	18.6	> 50	30.6	> 50	13.6	40.3	> 50	> 50	18.5	> 50	19.8	> 50	11	29.7	23.3	> 50
